Data published in patent US10519504B2, “Methods for treatment of oncological disorders using epimetabolic shifters, multidimensional intracellular molecules, or environmental influencers” (Berg LLC, priority 2009, dated 2019).

Experiments:
[1] = test system: SCC cells; assay: Real-time PCR Diabetes Array; assay type: cell-based
Text: The control cells were untreated cells.

[2] = test system: Lactate Dehydrogenase (LDH); assay: Western blot, Lactate Dehydrogenase levels; assay type: cell-based, human
Description: The samples were processed and run on a 4-12% Bis-Tris Novex NuPAGE gel as described above. The gels were run, transferred and stained essentially as described above.
After transfer each blot was dried for 15-20 minutes, activated with methanol for 5 seconds, washed with water for 5 minutes, and TBST for 15 minutes. The blots were blocked for 1 hour with 5% blocking reagent in TBS-T at room temperature and then washed 3 times with TBS-T (1X−15′; 2X5′ each) and probed with the primary antibody for Lactate Dehydrogenase (abcam ab2101; polyclonal) in 5% BSA (at 1:1000 dilutions) by incubation overnight at 4 deg C. with shaking. After the overnight incubation with primary antibody for Lactate Dehydrogenase, the blots were washed 3 times with TBS-T (1X−15′; 2X5′ each) and probed with the secondary antibody (rabbit antigoat; 1:10,000 dilution) for 1 h at room temperature. After 1 h of incubation with secondary antibodies, the blots were washed 3 times with TBS-T (1X−15′; 2X5′ each) and then incubated with ECF reagent for 5 mins and then each blot scanned with 5100 Fuji Laser scanner at 25 uM resolution, 16 bit, green laser, at 400V and at 500 V. […]
The levels of LDH and PDH were determined by probing the blots successively with primary antibodies for LDH and PDH, essentially as described above. […]

[3] = test system: MCF-7 breast cancer cells; assay: OCR and ECAR, SeaHorse XF analyzer; assay type: cell-based
Text: (SeaHorse Biosciences Inc, North Billerica, Mass.).
In contrast, cancer cells (e.g., MCF-7, PaCa-2) are inherently primed to culture at higher levels of glucose compared to normal cells due to their glycolytic phenotype for maintenance in culture.

SMILES: COC1=C(OC)C(=O)C(C/C=C(\C)CC/C=C(\C)CC/C=C(\C)CC/C=C(\C)CC/C=C(\C)CC/C=C(\C)CC/C=C(\C)CC/C=C(\C)CC/C=C(\C)CCC=C(C)C)=C(C)C1=O [Q10, Coenzyme Q10]
- TNFRSF1A Regulation ([1]; 100 μM Q10, at 6 and 24 hours): Down regulated at 6
- G6PD Regulation ([1]; 100 μM Q10, at 6 hours): Down regulated at 6
- ICAM1 Regulation ([1]; 100 μM Q10, at 6 hours): Down regulated at 6
- INPPL1 Regulation ([1]; 100 μM Q10, at 6 hours): Down regulated at 6
- NOS3 Regulation ([1]; 100 μM Q10, at 6 hours): Down regulated at 6
- PIK3CD Regulation ([1]; 100 μM Q10, at 6 hours): Down regulated at 6
- PPARA Regulation ([1]; 100 μM Q10, at 6 hours): Down regulated at 6
- PYGL Regulation ([1]; 100 μM Q10, at 6 hours): Down regulated at 6
- SREBF1 Regulation ([1]; 100 μM Q10, at 6 hours): Down regulated at 6
- STXBP2 Regulation ([1]; 100 μM Q10, at 6 hours): Down regulated at 6
- TNF Regulation ([1]; 100 μM Q10, at 6 hours): Down regulated at 6
- VEGFA Regulation ([1]; 100 μM Q10, at 6 hours): Down regulated at 6
- LDH expression ([2]; cancer): reduced Lactate Dehydrogenase (LDH) expression in cancer
- LDH expression ([2]; normal cells): minimal effect on normal cells
- OCR values [3]: consistent reduction in OCR values
